{
  "source": "patent US20130045162A1",
  "about": "“DELIVERY SYSTEM FOR SPECIFICALLY TARGETING CANCER CELLS AND METHOD OF USE THEREOF” (MOREHOUSE SCHOOL OF MEDICINE, priority 2011, published 2013)",
  "key": {"[1]": {"conditions": "cited from earlier work"}, "[2]": {"tested_on": "normal (primary) breast epithelial cells", "assay": "normal breast epithelial cell death / apoptosis in culture", "format": "cell-based", "conditions": "20 μM, after 24 hr of culture", "description": "(§1) The folate coated PBM nanoparticles are further loaded with docetaxel, carboplatin, or cisplatin. […] However, PBM nanoparticles containing 10× less chemotherapeutic agent were taken up and induced the same level of BrCa cell apoptosis as cisplatin, docetaxel, or carboplatin solution, respectively, but not primary breast epithelial cells. […] Accordingly, the novel PBM nanoparticles of the present application enhance BrCa therapy efficacy, reduce toxicities, and increase breast tumor immunity."}, "[3]": {"tested_on": "MDA-MB-231-Luc xenografts", "assay": "tumor regression in MDA-MB-231-luc tumor-bearing mice", "format": "in vivo", "conditions": "8 mg/kg/week, intravenous injection"}, "[4]": {"tested_on": "DU145 (prostate cancer cell line)", "assay": "DU145 apoptosis, ImageStream (TUNEL/DRAQ5)", "format": "cell-based", "conditions": "20 uM, 1 hour, wash, 48 hours", "procedure": "(§2) DU145 (prostate cancer cell line) and PrEC (primary prostatic epithelial cells) cells were treated with cisplatin solution or cisplatin-containing and cancer cell-binding peptides (I, II, III, and IV)- or folate-conjugated polycaprolactone-coated PBM nanoparticles, or uncoated nanoparticles. […] Apoptotic cells were identified using two standard image based features from the IDEAS package: Area and Spot Small Total. Condensed apoptotic nuclei have lower nuclear area value as compared to live cells."}, "[5]": {"tested_on": "normal prostatic epithelial cells (PrEC and RWPE-1)", "assay": "normal prostatic epithelial cell death in vitro", "format": "cell-based", "conditions": "20 μM"}, "[6]": {"tested_on": "PrEC (primary prostatic epithelial cells)", "assay": "PrEC apoptosis, ImageStream (TUNEL/DRAQ5)", "format": "cell-based", "conditions": "20 uM, 1 hour, wash, 48 hours", "procedure": "as §2"}, "[7]": {"set-up": "species or system mice", "conditions": "mouse, in vivo", "quoted_text": "Serum is collected at sacrifice and urea N2, creatine, P, Ca, Na, K, Cl, bicarbonate, alkaline phosphatase, alanine transaminase (ALT), aspartate aminotransferase (AST), creatine kinase (CK), cholesterol, total bilirubin, total protein, albumin, globulin, albumin/globulin ratio, glucose and amylase are measured."}, "[8]": {"tested_on": "PC3-luc tumor", "assay": "tumor regression in PC3-luc tumor-bearing mice", "format": "in vivo", "conditions": "8 mg/kg/week, intravenous injection"}, "[9]": {"tested_on": "BrCa cells (MCF-7, MDA-MB-231, and 4T1)", "assay": "BrCa cell death / apoptosis in culture", "format": "cell-based", "conditions": "20 μM, after 24 hr of culture", "description": "as §1"}, "[10]": {"tested_on": "PCa cells (PC3 and PTEN-CaP2)", "assay": "PCa cell death / apoptosis in vitro", "format": "cell-based, human; mouse", "conditions": "20 μM"}, "[11]": {"tested_on": "PC3-luc and PTEN-CaP2-luc tumor", "assay": "Example 5 intratibia PC3-luc / PTEN-CaP2-luc tumor model", "format": "in vivo, mice", "conditions": "intravenous", "procedure": "To mimic advanced (bone metastasis) PCa, NIH-III or B6 male mice receiving vitamin D-deficient or normal diets are injected in left tibia with PC3-luc or PTEN-CaP2-luc cells, respectively. […] Microscopic and morphometric analysis determine the significance of treatments on prostate tumor apoptosis and change in the frequency or survival of PCa cells. […] Blood samples are used to determine serum docetaxel and oxaliplatin PK/PD by mass spectrometry.\nNIH-III and B6 male mice are purchased from Jackson Laboratories. Animals are housed and maintained in microbial isolator cages under conventional housing conditions at the Morehouse School of Medicine's animal facility. The guidelines proposed by the committee for the Care of Laboratory Animal Resources Commission of Life Sciences—National Research Council are followed to minimize animal pain and distress. Eight to ten week old mice are injected in the right tibia with 10^6 PTEN-P2-luc (matched benign), PTEN-CaP2-luc (prostate adenocarcinoma), or PC3-luc cells. To assess the affects of hormone ablation on cytotoxic drug or PBM nanoparticle susceptibility, another group of mice is castrated after prostate tumor detection."}, "[12]": {"tested_on": "spontaneous PCa in PBcre4+cPten−/− luc+ and PBcre4+cPten−/− luc+ cav1+ mice", "assay": "Example 6 spontaneous prostate tumor model (cPten−/− luc mice)", "format": "in vivo", "conditions": "for metastatic lesions: alone or encapsulated", "description": "PBM nanoparticle effects on spontaneous tumor and Treg cell development are examined using cPten^−/−PBcre4^+luc^+ or cPten^−/−PBcre4^+luc^+cav1^+ (castrated or noncastrated) mice. Pten^floxed/floxedluc^+ without the Cre gene, which serve as negative tumor controls, and male cPten^−/− PBcre4^+luc^+ or cPten^−/−PBcre4^+luc^+cav1^+ (castrated or noncastrated) mice are imaged every week during PCa development from murine PIN (6 weeks of age), invasive adenocarcinoma (>9 weeks of age), and metastatic lymph node, lung and possibly bone at 12 weeks of age. After 9 weeks of age, tumors are allowed to progress to a net increase of 10^5 photons/sec/cm^2 from luminescence detected in mice <9 weeks of age. A set of mice is castrated to study androgen-independent hormone refractory PCa and another set is not castrated to further study the progression of PTEN-mediated PCa with androgens. […] Microscopic and morphometric analysis determine the significance of treatments on prostate tumor apoptosis and change in the frequency or survival of secretory luminal, basal, neuroendocrine and proliferating PCa cells. […] The proliferation of purified T lymphocytes is measured after CD3 plus CD28 stimulation (i.e., incubation on antibody-coated plates) with or without FR4 to assess Th1/Th2 cell proliferation. […]\nDespite being homozygous for Pten gene deletion, the individual PBcre4^+ cPten^−/− luc^+ and PBcre4^+ cPten^−/− luc^+ cav1^+ mice will have different copies of active luciferase (L) gene. The copy number of trans L genes are determined and confirmed by multiplex polymerase chain reaction amplification and Southern blot analysis to insure the number of L genes responsible for luciferase will not change from experiment to experiment. […]"}, "[13]": {"conditions": "mouse, in vivo", "quoted_text": "(§3) To mimic advanced (bone metastasis) PCa in ERCC1 variant individuals, B6 and B6.Xpc^−/− mice are injected in left tibia PTEN-CaP2-luc cells. Tumor progression is followed non-invasively in non-castrated mice using our Caliper/Xenogen IVIS-100 imaging system. After tumors emit luminescence >10^5 photons/sec/cm^2, one set of mice is castrated (i.e., to mimic androgen ablation) and the second set is not. […] Mice are imaged every week to monitor tumor progression/regression. When tumors in negative control (saline vehicle treated only) exceed 10^8 photons/sec/cm^2, groups in each set are sacrificed. […] The number and activity of peripheral, lymph node and tumor-associated lymphocytes are isolated and CD4^+ T cells affinity purified and intracellularly and surface stained for flow cytometry analysis of Th1, Th2, Th17, and cell frequency as before. Specifically, the proliferation of purified T lymphocytes after CD3 plus CD28 stimulation with or without FR4 to access Th1/Th2 cell proliferation as before. Along with weekly bioluminescence imaging, blood chemistry and peripherial blood leukocyte subpopulations are monitored to evaluate tumor- or drug-associated toxicities that may be associated with Xpc deficiency."}, "[14]": {"tested_on": "PTEN-CaP2-luc tumor", "assay": "Example 7 PTEN-CaP2-luc tumor in B6 and B6.Xpc−/− mice", "format": "in vivo", "quoted_text": "as §3"}, "[15]": {"biological_target": "FR2 (Homo sapiens, UniProt P14207)", "sequence (P14207 17-230)": "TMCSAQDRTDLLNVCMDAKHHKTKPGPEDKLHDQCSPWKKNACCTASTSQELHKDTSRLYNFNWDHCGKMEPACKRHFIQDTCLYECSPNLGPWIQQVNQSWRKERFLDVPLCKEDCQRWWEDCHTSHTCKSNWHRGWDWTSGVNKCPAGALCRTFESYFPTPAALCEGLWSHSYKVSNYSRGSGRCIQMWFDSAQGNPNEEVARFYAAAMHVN", "conditions": "read-out: affinity for FR2; cited from earlier work"}, "[16]": {"biological_target": "FR1 (Homo sapiens, UniProt P15328)", "sequence (P15328 25-234)": "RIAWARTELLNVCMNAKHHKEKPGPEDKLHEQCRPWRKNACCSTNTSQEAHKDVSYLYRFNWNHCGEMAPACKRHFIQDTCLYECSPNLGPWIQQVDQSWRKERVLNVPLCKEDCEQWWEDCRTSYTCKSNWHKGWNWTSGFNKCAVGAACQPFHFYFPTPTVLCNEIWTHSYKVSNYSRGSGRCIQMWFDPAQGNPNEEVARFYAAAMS", "conditions": "read-out: affinity for FR1; cited from earlier work"}, "[17]": {"assay": "Example 7 systemic toxicities in B6 and B6.Xpc−/− mice", "conditions": "B6.Xpc−/− mice compared to B6 mice", "quoted_text": "as §3"}, "[18]": {"conditions": "optimal dose 10 mg/kg/week, both B6 and B6.Xpc−/− mice"}},
  "note": "Like-named read-outs stand apart in the source and are kept apart here.",
  "data": [
    {"smiles": "COc1cc(/C=C/C(=O)CC(=O)/C=C/c2ccc(O)c(OC)c2)ccc1O", "note": "[Free curcumin, diferuloylmethane]", "values": [
      {"measurement": "solubility in water", "setting": "[1]", "value": "completely insoluble in water"}
    ]},
    {"smiles": "[NH2][Pt]([NH2])([Cl])[Cl]", "note": "[Cisplatin solution, cisplatin]", "values": [
      {"measurement": "cell death", "setting": "[2]", "value": "> 90", "unit": "%"},
      {"measurement": "tumor regression", "setting": "[3]", "value": "significant (and similar) tumor regression"},
      {"measurement": "apoptosis of DU145 cells", "setting": "[4]", "value": "apoptosis of both DU145 and PrEC cells"},
      {"measurement": "cell death", "setting": "[5]", "value": "> 90", "unit": "%"},
      {"measurement": "apoptosis of PrEC cells", "setting": "[6]", "value": "apoptosis of both DU145 and PrEC cells"},
      {"measurement": "Albumin", "setting": "[7]", "value": "4.2 ± 0.6", "unit": "g/dL"},
      {"measurement": "Albumin/Globulin ratio", "setting": "[7]", "value": "4.22 ± 2.41"},
      {"measurement": "Alk Phos", "setting": "[7]", "value": "160 ± 34.64", "unit": "U/L"},
      {"measurement": "Amylase", "setting": "[7]", "value": "2062 ± 371.44", "unit": "U/L"},
      {"measurement": "Bicarbonate", "setting": "[7]", "value": "10.2 ± 1.04", "unit": "mmol/fL"},
      {"measurement": "CK", "setting": "[7]", "value": "3975 ± 45", "unit": "U/L"},
      {"measurement": "Calcium", "setting": "[7]", "value": "1.2 ± 0", "unit": "mg/dL"},
      {"measurement": "Cholestrol", "setting": "[7]", "value": "84 ± 10.39", "unit": "mg/dL"},
      {"measurement": "Cl", "setting": "[7]", "value": "106 ± 3.46", "unit": "mEq/l"},
      {"measurement": "Creatinin", "setting": "[7]", "value": "0.8 ± 0.35", "unit": "mg/dL"},
      {"measurement": "Globulins", "setting": "[7]", "value": "1.2 ± 0.6", "unit": "g/dL"},
      {"measurement": "Glucose", "setting": "[7]", "value": "52 ± 17.32", "unit": "mg/dL"},
      {"measurement": "K", "setting": "[7]", "value": "9.2 ± 012", "unit": "mEg/l"},
      {"measurement": "Na", "setting": "[7]", "value": "152 ± 3.46", "unit": "mEq/l"},
      {"measurement": "Phosphorus", "setting": "[7]", "value": "72 ± 0", "unit": "mg/dL"},
      {"measurement": "Total Bilirubin", "setting": "[7]", "value": "0.6 ± 0", "unit": "mg/dL"},
      {"measurement": "Total protein", "setting": "[7]", "value": "5 ± 0.35", "unit": "g/dL"},
      {"measurement": "Urea N2", "setting": "[7]", "value": "36 ± 0", "unit": "mg/dL"},
      {"measurement": "tumor regression", "setting": "[8]", "value": "significant (and similar) tumor regression"},
      {"measurement": "cell death", "setting": "[9]", "value": "> 90", "unit": "%"},
      {"measurement": "cell death", "setting": "[10]", "value": "> 90", "unit": "%"}
    ]},
    {"smiles": "CC(=O)O[C@@]12CO[C@@H]1C[C@H](O)[C@@]1(C)C(=O)[C@H](O)C3=C(C)[C@@H](OC(=O)[C@H](O)[C@@H](NC(=O)OC(C)(C)C)c4ccccc4)C[C@@](O)([C@@H](OC(=O)c4ccccc4)[C@H]21)C3(C)C", "note": "[docetaxel]", "values": [
      {"measurement": "tumor regression", "setting": "[11]; optimal dose 10 mg/kg/week", "value": "tumor regression"},
      {"measurement": "tumor regression", "setting": "[11]; suboptimal dose 0.1 mg/kg/week", "value": "not suboptimal"},
      {"measurement": "metastatic lesions", "setting": "[12]", "value": "fewer metastatic lesions"},
      {"measurement": "toxicities (elevated AST & ALT, hypocalcemia and hypoglycemia)", "setting": "[13]", "value": "significantly higher toxicities"},
      {"measurement": "tumor regression", "setting": "[14]; [18]", "value": "tumor regression"},
      {"measurement": "tumor regression", "setting": "[14]; suboptimal dose 0.1 mg/kg/week", "value": "not suboptimal"}
    ]},
    {"smiles": "CN1c2c(nc(N)[nH]c2=O)NC[C@@H]1CNc1ccc(C(=O)N[C@@H](CCC(=O)O)C(=O)O)cc1", "note": "[6S 5-methyltetrahydrofolate]", "values": [
      {"measurement": "Kd", "setting": "[15]", "value": 1, "unit": "nM"},
      {"measurement": "Kd", "setting": "[16]", "value": 55, "unit": "nM"}
    ]},
    {"smiles": "O=C1[O][Pt]2([NH][C@@H]3CCCC[C@H]3[NH]2)[O]C1=O", "note": "[oxaliplatin]", "values": [
      {"measurement": "toxicities (elevated AST & ALT, hypocalcemia and hypoglycemia)", "setting": "[17]", "value": "significantly higher toxicities"},
      {"measurement": "tumor regression", "setting": "[11]; optimal dose 10 mg/kg/week", "value": "tumor regression"},
      {"measurement": "tumor regression", "setting": "[11]; suboptimal dose 0.1 mg/kg/week", "value": "not suboptimal"},
      {"measurement": "metastatic lesions", "setting": "[12]", "value": "fewer metastatic lesions"},
      {"measurement": "neuroendocrine differentiation", "setting": "[12]; mouse, in vivo", "value": "reduced"},
      {"measurement": "tumor regression", "setting": "[14]; [18]", "value": "tumor regression"},
      {"measurement": "tumor regression", "setting": "[14]; suboptimal dose 0.1 mg/kg/week", "value": "not suboptimal"}
    ]}
  ]
}
